Experiment: Acute toxicity in BALB/c mouse assessed as heart lesion at 50 to 100 mg/kg, ip measured every 2 days by H and E staining based assay
Type: organism-based
Conditions: in vivo, 48 h, dose 50-100 mg/kg

C=C(C)C(=O)N1CCc2cccc(C3=CC(=O)N(C)C3=O)c21
Activity: Non-Toxic

Reference: ChEMBL document CHEMBL5550173, “Design, synthesis and biological evaluation of indoline-maleimide conjugates as potential antitumor agents for the treatment of colorectal cancer” (Bioorg Med Chem, 2024)
